According to patent US5006511A, “Di- or tripeptide renin inhibitors containing lactam conformational restriction in achpa” (Merck & Co., Inc., priority 1988, dated 1991):
Where a SMILES comes first, the peptide text is derived from it. [ ]: non-standard residue; d: D form. The star is where a group is joined. Sta = CC(C)C[C@H](N)[C@@H](O)CC(=O)O; Isovaleryl = CC(C)CC(=O)*

Key:
human plasma renin = molecular target: T1, human plasma renin (Homo sapiens, UniProt P00797); assay: In vitro inhibition of human plasma renin (Boger et al., J. Med. Chem. 1985, 28, 1779); type: biochemical; conditions: human plasma renin assay
T1 construct: from tissue; host or cells: human plasma
T1 sequence (P00797 67-406): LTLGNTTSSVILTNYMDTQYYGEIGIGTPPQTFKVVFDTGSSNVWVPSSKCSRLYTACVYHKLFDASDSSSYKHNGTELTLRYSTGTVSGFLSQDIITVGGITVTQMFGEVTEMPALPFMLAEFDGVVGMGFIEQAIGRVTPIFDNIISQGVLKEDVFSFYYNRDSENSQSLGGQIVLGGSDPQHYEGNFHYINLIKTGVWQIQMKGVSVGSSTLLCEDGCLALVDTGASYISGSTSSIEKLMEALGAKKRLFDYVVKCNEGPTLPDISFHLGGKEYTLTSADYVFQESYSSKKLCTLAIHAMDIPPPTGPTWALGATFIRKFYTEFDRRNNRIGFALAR
Experimental: In vitro inhibition of human plasma renin was measured as described by Boger, et al., J. Med. Chem. (1985) 28, 1779.
They were analyzed for purity by HPLC (30 minute gradient, 5% CH3 CN--H2 O to 95% CH3 CN--H2 O buffered with 0.1% H3 PO4; C18 reverse phase column), and were analyzed for composition by C, H, and N combustion analysis. IC50 values were measured in vitro using the human plasma renin assay, as described by Boger et al. J. Med. Chem. (1985) 28, 1779.
They were analyzed for purity by HPLC under conditions given above, and were analyzed for composition by C, H, and N combustion analysis. IC50 values were measured as described above.

hog renin = conditions: after the injection of hog renin into nephrectomized rats; Gross et al., Science 1972; cited from earlier work

Compound	IC50 (human plasma renin) [nM]	blood pressure in vivo (hog renin)
Boc-Phe-His-(ACHP)-5(R)-Ethyl-1-Methyl-2-Pyrrolidinone [Example 3K]	8.5	–
Boc-Phe-His-(ACHP)-5(S)-Ethyl-1-Methyl-2-Pyrrolidinone [Example 3L]	5.3	–
Boc-Phe-His-(ACHP)-5(S)-Benzyloxymethyl-1-Methyl-2-Pyrrolidinone [Example 3C]	4400	–
CC(C)CC(=O)N[C@H](C(=O)N[C@H](C(=O)N[C@@H](CC(C)C)[C@@H](O)CC(=O)N[C@@H](C)C(=O)N[C@@H](CC(C)C)[C@@H](O)CC(=O)O)C(C)C)C(C)C [pepstatin] (Isovaleryl-VV[Sta]A[Sta]-OH)	–	reduces blood pressure in vivo
Boc-Phe-His-(ACHP)-1-Methyl-2-Pyrrolidinone [Example 3A]	9.9	–
Boc-Phe-His-(ACHP)-5(S)-Hydroxymethyl)-1-Methyl-2-Pyrrolidinone [Example 3I]	14	–
Boc-Phe-His-(ACHP)-5(S)-Acetoxymethyl)-1-Methyl-2-Pyrrolidinone [Example 3J]	157	–
Boc-Phe-His-(ACHP)-1-(2-Benzyloxyethyl-2-Pyrrolidinone [Example 3E]	24	–
Boc-Phe-His-(ACHP)-1-Methyl-5(R)-Vinyl-2-Pyrrolidinone [Example 3G]	2.5	–
Boc-Phe-His-(ACHP)-1-Cyclohexyl-2-Pyrrolidinone [Example 3B]	10	–
Boc-Phe-His-(ACHP)-5(S)-Methoxymethyl-1-Methyl-2-Pyrrolidinone [Example 3D]	71	–
Boc-Phe-His-(ACHP)-1-Methyl-5(S)-Vinyl-2-Pyrrolidinone [Example 3F]	8	–
